# Measurements as given in patent US7034059B2, “Methods of using norfluoxetine” (Sepracor Inc., priority 2001, dated 2006).
# Where two headings read alike, the source gives them in different places.
# What was measured:
# [1] = system: human lung fibroblast cell line WI-38; test: Inhibition of IL-1β-induced PGE2 production, whole cell-based assay; conditions: for PGE2 (pg/ml) / PGE2: IL-1β 100 pg/mL, 24 hours; for IC50: Homo sapiens; for anti-inflammatory activity in vitro, R- versus S-enantiomer: conclusion from Tables 1-4
# Procedure: Compounds were tested for anti-inflammatory activity using a whole cell-based assay, wherein the human lung fibroblast cell line WI-38 was cultured in Eagle's basal media supplemented with 10% fetal calf serum (FCS) in 48-well tissue culture dishes in a humidified 7% CO2 atmosphere at 37° C. When the cells reached confluence, they were fed with fresh media for 24 hours. The media was removed and fresh media, containing either 5% or 10% FCS, was added to the cells. […] Interleukin-1β (Calbiochem) in 0.1% bovine serum albumin in phosphate buffered saline was added in a 1 μL aliquot to give a final concentration of 100 pg/mL. The cells were cultured for 24 hours and the amount of PGE2 secreted into the cell culture media was assayed using a PGE2 enzyme immunoassay kit (Cayman Chemicals, Ann Arbor, Mich.). Inhibition of PGE2 production is indicative of anti-inflammatory activity.
# The IC50 values of enantiomerically pure R- and S-norfluoxetine were determined by incubation of the WI-38 cells with varying concentrations of the compounds in question ([…]). The PGE2 produced for each concentration was plotted against the concentration of compound using the 6 safit 4.0 program (Erithacus software) and the IC50 determined by fitting the data to the 4-parameter equation.
# [2] = Serum levels of norfluoxetine after fluoxetine treatment (Prozac package insert); type: in vivo; conditions: human, oral, humans, after treatment for 30 days with 40 mg per day of fluoxetine, approximate conversion of ng/ml
# Source text: It is noteworthy that these values, especially that of R-norfluoxetine, fall within values that may be obtained in serum in humans.
# [3] = system: serotonin reuptake; conditions: Physicians' Desk Reference; cited from earlier work
# [4] = Table 1, 10% fetal calf serum-containing media, compound 0.5 uM
# [5] = Table 1, 10% fetal calf serum-containing media, compound 10 uM
# [6] = Table 2, 5% fetal calf serum-containing media, compound 0.5 uM
# [7] = Table 2, 5% fetal calf serum-containing media, compound 10 uM
# [8] = Table 3, 10% fetal calf serum-containing media, compound 0.5 uM
# [9] = Table 3, 10% fetal calf serum-containing media, compound 10 uM
# [10] = Table 4, 5% fetal calf serum-containing media, compound 0.5 uM
# [11] = Table 4, 5% fetal calf serum-containing media, compound 10 uM
SMILES,"PGE2 (pg/ml) [1, 4]","PGE2 (pg/ml) [1, 5]","PGE2 (pg/ml) [1, 6]","PGE2 (pg/ml) [1, 7]","PGE2 [1, 6] [pg/mL]","PGE2 [1, 4] [pg/mL]",also measured
"CNCCC(Oc1ccc(C(F)(F)F)cc1)c1ccccc1 (racemic) [rac-fluoxetine, (±)-N-methyl-γ-[4-(trifluoromethyl)-phenoxy]benzenepropanamine]",low,low,low,low,,,"PGE2 [1, 8]: 545 pg/mL; PGE2 [1, 9]: 156 pg/mL; PGE2 [1, 10]: 22 pg/mL; PGE2 (pg/ml) [1, 11]: low"
"CC(C(=O)O)c1cccc(C(=O)c2ccccc2)c1 (racemic) [rac-ketoprofen, ketoprofen]",,low,,low,119,,
"NCCC(Oc1ccc(C(F)(F)F)cc1)c1ccccc1 (racemic) [rac-norfluoxetine, (±)-γ-[4-(trifluoromethyl)-phenoxy]benzenepropanamine]",,low,low,low,,189,concentration at 30 days [2]: 230 to 830 nM
C[C@@H](C(=O)O)c1cccc(C(=O)c2ccccc2)c1 [(R)-ketoprofen],low,low,low,low,,,
"NCC[C@@H](Oc1ccc(C(F)(F)F)cc1)c1ccccc1 [(R)-norfluoxetine, R-norfluoxetine]",,,,,255,714,"IC50 ([1]; WI-38, read-out: IC50 (PGE2 produced)): ~790 nM; PGE2 [1, 5]: 159 pg/mL; PGE2 [1, 7]: 31 pg/mL; anti-inflammatory activity in vitro, R- versus S-enantiomer [1]: substantially equipotent; potency in inhibiting serotonin uptake [3]: significantly less potent than racemic fluoxetine"
C[C@H](C(=O)O)c1cccc(C(=O)c2ccccc2)c1 [(S)-ketoprofen],low,low,,low,145,,
"NCC[C@H](Oc1ccc(C(F)(F)F)cc1)c1ccccc1 [(S)-norfluoxetine, S-norfluoxetine]",,,,,483,809,"IC50 ([1]; WI-38 cells, 0.009-20 concentrations, 4-parameter fit, read-out: IC50 (PGE2 produced)): ~1400 nM; PGE2 [1, 5]: 486 pg/mL; PGE2 [1, 7]: 112 pg/mL; anti-inflammatory activity in vitro, R- versus S-enantiomer [1]: substantially equipotent; potency in inhibiting serotonin uptake [3]: potent and selective serotonin uptake inhibition"
Cc1ccc(-c2cc(C(F)(F)F)nn2-c2ccc(S(N)(=O)=O)cc2)cc1 [celebrex],low,low,,low,16,,"PGE2 (pg/ml) [1, 8]: low; PGE2 (pg/ml) [1, 9]: low; PGE2 (pg/ml) [1, 10]: low; PGE2 (pg/ml) [1, 11]: low"
CNCCC=C1c2ccccc2CCc2ccccc21 [nortriptylene],,,,,,,"PGE2 [1, 8]: 2040 pg/mL; PGE2 [1, 9]: 648 pg/mL; PGE2 [1, 10]: 880 pg/mL; PGE2 [1, 11]: 331 pg/mL"
